Tests used:
Cytochrome P450 2C9 = Cytochrome P450 2C9 (Homo sapiens, UniProt P11712); experiment: Inhibition of CYP2C9 (unknown origin); assay type: ADME; conditions: for inhibition (INH): human
Cytochrome P450 3A4 [1] = target: T1, Cytochrome P450 3A4 (Homo sapiens, UniProt P08684); experiment: Inhibition of CYP3A4 (unknown origin) using BFC as substrate preincubated with compound followed by substrate addition at 5 mins; assay type: ADME
Cytochrome P450 2D6 = Cytochrome P450 2D6 (Homo sapiens, UniProt P10635); experiment: Inhibition of CYP2D6 (unknown origin); assay type: ADME; conditions: for inhibition (INH): human
Cytochrome P450 3A4 [2] = target: T1, Cytochrome P450 3A4; experiment: Inhibition of CYP3A4 (unknown origin) using BFC as substrate preincubated with compound followed by substrate addition at 30 mins; assay type: ADME
Cytochrome P450 2C8 = target: T2, Cytochrome P450 2C8 (Homo sapiens, UniProt P10632); experiment: Inhibition of CYP2C8 (unknown origin); assay type: ADME; conditions: for inhibition (INH): human
T2 sequence (P10632 whole entry): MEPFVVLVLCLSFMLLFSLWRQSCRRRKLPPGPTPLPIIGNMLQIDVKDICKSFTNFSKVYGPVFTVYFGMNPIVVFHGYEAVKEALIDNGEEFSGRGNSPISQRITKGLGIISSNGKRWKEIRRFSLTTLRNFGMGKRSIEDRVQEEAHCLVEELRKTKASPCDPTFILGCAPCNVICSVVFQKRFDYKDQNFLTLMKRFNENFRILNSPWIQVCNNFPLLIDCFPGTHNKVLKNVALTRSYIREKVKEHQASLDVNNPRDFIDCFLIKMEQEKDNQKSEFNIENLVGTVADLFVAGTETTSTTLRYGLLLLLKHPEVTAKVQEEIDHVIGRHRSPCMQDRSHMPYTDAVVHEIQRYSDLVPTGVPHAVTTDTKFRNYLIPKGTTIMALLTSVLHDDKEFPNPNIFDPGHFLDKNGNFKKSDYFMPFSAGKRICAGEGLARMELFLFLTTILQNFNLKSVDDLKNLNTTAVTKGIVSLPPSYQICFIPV

[3] = Cytotoxicity against PHA-activated T-cells (unknown origin) assessed as inhibition of IL-2 induced cell proliferation measured after 72 hrs by MTS assay; assay type: toxicity, cell-based
[4] = Metabolic stability in mouse liver microsomes assessed as compound remaining at 0.5 uM incubated for 10 mins in presence of NADPH by UV absorbance based assay; assay type: ADME, Microsome; conditions: read-out: Stability
[5] = Metabolic stability in human liver microsomes assessed as compound remaining at 0.5 uM incubated for 10 mins in presence of NADPH by UV absorbance based assay; assay type: ADME, Microsome; conditions: read-out: Stability
Toll-like receptor 7 [6] = target: T3, Toll-like receptor 7 (Mus musculus, UniProt P58681); experiment: Agonist activity at mouse TLR7
T3 sequence (P58681 whole entry): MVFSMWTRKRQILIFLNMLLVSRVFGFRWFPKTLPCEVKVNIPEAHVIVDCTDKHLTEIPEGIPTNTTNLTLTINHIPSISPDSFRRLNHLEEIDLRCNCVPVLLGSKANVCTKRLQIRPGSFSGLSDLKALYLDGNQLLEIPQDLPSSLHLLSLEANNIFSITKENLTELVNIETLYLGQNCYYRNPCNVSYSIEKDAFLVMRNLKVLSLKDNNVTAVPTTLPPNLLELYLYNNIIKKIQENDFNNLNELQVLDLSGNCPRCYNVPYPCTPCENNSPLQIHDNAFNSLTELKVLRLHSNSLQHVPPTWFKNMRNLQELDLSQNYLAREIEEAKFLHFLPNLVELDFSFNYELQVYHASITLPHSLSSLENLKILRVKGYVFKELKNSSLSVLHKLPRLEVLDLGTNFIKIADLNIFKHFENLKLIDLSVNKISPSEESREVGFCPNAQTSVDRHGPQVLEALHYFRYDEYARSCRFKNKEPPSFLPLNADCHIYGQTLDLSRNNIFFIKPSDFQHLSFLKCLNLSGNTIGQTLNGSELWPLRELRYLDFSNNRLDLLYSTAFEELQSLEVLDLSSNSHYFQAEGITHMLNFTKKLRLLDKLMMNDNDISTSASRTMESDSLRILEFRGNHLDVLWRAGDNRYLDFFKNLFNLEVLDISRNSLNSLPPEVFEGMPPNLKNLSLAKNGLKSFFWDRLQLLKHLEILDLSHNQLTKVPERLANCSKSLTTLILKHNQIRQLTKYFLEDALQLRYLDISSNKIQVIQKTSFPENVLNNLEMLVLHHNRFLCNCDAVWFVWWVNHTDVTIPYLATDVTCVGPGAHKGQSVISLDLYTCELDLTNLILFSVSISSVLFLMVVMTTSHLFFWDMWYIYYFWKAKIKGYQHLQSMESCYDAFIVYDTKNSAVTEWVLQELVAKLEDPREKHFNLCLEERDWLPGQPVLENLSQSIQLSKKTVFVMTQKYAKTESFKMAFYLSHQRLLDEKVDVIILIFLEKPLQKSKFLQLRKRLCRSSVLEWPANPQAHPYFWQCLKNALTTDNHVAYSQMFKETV

[7] = target: Voltage-gated inwardly rectifying potassium channel KCNH2 (Homo sapiens, UniProt Q12809); experiment: Inhibition of hERG; assay type: toxicity; conditions: for inhibition (INH): human
Cytochrome P450 1A2 = target: T4, Cytochrome P450 1A2 (Homo sapiens, UniProt P05177); experiment: Inhibition of CYP1A2 (unknown origin); assay type: ADME; conditions: for inhibition (INH): human
T4 sequence (P05177 whole entry): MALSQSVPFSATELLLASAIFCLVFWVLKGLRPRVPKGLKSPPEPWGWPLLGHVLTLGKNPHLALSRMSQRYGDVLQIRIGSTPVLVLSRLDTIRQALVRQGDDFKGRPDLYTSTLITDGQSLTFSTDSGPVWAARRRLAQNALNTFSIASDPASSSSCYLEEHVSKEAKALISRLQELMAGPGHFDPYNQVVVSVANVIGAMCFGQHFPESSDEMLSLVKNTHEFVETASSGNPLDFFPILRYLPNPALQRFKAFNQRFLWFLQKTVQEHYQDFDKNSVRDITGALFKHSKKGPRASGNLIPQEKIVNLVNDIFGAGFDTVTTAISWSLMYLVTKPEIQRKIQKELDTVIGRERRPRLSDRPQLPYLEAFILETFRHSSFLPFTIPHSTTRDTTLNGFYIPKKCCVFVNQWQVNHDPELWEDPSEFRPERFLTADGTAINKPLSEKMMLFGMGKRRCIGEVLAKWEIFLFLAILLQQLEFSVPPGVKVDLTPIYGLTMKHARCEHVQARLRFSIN

Cytochrome P450 2C19 = Cytochrome P450 2C19 (Homo sapiens, UniProt P33261); experiment: Inhibition of CYP2C19 (unknown origin); assay type: ADME; conditions: for inhibition (INH): human
Cytochrome P450 3A4 [8] = target: T1, Cytochrome P450 3A4; experiment: Inhibition of CYP3A4 (unknown origin) using BFC as substrate; assay type: ADME; conditions: for inhibition (INH): human
Toll-like receptor 7 [9] = target: T5, Toll-like receptor 7 (Homo sapiens, UniProt Q9NYK1); experiment: Agonist activity at human TLR7 in HEK-Blue hTLR7 cells harboring SEAP reporter transgene incubated for 18 hrs by quanti-blue reagent based assay; assay type: cell-based
T5 sequence (Q9NYK1 whole entry): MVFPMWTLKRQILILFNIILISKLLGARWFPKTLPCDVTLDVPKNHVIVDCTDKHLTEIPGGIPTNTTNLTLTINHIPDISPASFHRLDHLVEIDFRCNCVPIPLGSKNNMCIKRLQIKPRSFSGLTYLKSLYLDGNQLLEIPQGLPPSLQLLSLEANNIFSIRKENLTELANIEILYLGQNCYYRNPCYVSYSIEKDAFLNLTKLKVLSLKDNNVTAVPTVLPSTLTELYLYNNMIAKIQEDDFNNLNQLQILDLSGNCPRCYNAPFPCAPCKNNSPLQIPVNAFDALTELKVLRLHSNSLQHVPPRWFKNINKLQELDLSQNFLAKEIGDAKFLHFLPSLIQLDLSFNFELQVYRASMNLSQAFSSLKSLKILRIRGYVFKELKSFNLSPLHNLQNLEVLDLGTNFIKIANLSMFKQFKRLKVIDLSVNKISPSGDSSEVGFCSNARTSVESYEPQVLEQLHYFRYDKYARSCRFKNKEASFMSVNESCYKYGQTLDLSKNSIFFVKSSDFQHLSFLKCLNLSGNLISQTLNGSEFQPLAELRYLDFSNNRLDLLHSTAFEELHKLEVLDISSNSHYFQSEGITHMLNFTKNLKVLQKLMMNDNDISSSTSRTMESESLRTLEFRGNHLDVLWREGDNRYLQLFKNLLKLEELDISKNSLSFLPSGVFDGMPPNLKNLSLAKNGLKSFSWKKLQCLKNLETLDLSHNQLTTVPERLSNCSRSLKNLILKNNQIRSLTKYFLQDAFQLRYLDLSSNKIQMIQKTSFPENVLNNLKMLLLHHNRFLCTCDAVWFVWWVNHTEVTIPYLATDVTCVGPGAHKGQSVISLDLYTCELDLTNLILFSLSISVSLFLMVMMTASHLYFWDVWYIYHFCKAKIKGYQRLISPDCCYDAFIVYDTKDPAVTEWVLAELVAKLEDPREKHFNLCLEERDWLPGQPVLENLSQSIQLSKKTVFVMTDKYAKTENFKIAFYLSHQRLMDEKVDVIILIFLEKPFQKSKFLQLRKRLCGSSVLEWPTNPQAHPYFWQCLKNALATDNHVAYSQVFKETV

Chain of Cytochrome P450 2D6 (P10635 whole entry): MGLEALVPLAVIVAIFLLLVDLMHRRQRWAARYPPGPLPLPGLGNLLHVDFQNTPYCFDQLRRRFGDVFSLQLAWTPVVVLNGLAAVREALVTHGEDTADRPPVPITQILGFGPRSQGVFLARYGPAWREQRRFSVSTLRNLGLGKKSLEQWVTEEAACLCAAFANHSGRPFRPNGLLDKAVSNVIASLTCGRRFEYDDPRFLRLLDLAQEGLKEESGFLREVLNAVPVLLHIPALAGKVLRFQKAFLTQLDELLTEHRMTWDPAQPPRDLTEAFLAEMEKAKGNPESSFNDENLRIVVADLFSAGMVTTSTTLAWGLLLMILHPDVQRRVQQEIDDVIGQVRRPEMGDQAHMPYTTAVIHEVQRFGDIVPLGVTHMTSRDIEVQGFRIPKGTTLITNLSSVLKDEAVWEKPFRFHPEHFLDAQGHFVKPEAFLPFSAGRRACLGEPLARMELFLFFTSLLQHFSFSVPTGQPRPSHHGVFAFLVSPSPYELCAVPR
T1 sequence (P08684 whole entry): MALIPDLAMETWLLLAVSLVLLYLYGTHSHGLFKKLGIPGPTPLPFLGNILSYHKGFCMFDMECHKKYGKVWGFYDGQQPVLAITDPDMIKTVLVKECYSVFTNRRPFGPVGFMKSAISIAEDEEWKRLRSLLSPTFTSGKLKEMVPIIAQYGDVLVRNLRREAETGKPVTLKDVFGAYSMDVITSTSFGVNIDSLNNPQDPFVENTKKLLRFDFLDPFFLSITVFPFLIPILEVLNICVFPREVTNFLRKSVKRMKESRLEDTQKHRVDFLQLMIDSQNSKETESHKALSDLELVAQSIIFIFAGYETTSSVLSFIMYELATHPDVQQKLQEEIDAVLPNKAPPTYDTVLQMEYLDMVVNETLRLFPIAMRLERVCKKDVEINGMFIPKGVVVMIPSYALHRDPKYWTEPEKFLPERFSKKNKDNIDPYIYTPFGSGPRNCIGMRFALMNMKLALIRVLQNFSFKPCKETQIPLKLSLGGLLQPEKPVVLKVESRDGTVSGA
Chain of Voltage-gated inwardly rectifying potassium channel KCNH2 (Q12809 whole entry): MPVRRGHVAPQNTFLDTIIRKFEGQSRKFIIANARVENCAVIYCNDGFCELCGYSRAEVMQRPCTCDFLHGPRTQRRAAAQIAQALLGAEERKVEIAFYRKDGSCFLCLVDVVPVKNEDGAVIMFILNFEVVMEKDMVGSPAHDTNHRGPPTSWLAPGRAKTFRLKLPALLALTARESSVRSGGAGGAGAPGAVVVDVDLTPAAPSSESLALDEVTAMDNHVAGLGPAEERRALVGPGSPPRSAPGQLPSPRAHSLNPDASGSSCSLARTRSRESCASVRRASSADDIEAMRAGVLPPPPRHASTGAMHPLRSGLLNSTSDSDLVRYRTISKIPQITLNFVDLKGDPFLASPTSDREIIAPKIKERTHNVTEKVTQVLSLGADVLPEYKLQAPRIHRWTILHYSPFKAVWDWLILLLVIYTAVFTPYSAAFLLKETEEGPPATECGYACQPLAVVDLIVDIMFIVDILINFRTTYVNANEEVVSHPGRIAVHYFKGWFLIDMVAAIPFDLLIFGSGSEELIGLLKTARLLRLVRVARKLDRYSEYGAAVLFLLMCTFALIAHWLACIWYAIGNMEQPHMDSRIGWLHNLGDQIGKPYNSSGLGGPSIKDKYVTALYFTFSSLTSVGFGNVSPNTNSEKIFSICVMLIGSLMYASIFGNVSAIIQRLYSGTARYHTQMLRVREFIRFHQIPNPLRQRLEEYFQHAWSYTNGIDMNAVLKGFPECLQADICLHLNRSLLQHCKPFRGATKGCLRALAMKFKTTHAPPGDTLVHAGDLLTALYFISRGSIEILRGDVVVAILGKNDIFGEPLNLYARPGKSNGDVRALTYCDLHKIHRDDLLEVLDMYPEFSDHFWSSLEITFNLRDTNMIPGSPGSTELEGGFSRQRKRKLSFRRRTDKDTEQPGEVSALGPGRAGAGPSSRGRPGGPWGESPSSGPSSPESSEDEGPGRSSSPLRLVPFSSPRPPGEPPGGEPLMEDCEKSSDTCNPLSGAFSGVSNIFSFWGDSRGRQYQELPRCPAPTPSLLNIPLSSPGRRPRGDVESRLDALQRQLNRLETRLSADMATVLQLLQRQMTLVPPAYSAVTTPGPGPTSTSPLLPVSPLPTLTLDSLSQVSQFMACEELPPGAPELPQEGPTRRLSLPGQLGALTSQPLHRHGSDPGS
Chain of Cytochrome P450 2C19 (P33261 whole entry): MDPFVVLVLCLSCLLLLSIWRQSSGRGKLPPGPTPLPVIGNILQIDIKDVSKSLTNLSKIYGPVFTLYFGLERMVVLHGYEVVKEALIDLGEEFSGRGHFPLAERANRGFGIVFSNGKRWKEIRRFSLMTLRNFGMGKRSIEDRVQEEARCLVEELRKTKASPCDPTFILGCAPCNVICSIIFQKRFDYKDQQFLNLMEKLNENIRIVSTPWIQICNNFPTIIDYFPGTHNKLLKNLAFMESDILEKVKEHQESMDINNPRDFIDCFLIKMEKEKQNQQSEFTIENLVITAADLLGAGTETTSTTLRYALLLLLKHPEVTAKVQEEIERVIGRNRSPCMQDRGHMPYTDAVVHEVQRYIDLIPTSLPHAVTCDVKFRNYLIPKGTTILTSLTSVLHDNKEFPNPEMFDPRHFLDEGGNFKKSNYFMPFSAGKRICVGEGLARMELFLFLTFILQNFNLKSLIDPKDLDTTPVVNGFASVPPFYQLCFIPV
Chain of Cytochrome P450 2C9 (P11712 whole entry): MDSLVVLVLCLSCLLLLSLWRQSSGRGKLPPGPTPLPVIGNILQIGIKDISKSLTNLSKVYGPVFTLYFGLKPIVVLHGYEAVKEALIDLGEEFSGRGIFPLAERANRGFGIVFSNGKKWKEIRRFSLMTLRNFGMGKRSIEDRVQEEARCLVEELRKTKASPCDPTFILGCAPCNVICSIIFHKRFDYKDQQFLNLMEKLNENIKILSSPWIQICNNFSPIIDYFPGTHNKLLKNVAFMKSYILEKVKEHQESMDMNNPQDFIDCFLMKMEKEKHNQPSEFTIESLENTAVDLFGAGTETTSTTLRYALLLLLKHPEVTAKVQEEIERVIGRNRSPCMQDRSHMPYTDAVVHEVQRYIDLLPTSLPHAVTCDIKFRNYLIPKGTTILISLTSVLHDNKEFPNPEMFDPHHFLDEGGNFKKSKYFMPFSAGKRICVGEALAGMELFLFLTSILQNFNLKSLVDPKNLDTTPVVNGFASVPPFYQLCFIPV

Row | Compound | IC50 (Cytochrome P450 2C9) [µM] | IC50 (Cytochrome P450 3A4 [1]) [µM] | IC50 (Cytochrome P450 2D6) [µM] | IC50 (Cytochrome P450 3A4 [2]) [µM] | IC50 (Cytochrome P450 2C8) [µM] | IC50 at 72 h [3] [µM] | remaining at 10 min, 0.5 µM [4] [%] | remaining at 10 min, 0.5 µM [5] [%] | EC50 (Toll-like receptor 7 [6]) [µM] | IC50 [7] [µM] | IC50 (Cytochrome P450 1A2) [µM] | IC50 (Cytochrome P450 2C19) [µM] | IC50 (Cytochrome P450 3A4 [8]) [µM] | EC50 (Toll-like receptor 7 [9]) [µM] | inhibition (INH) [7] | also measured
1 | CCCCNc1nc(N)nc2cnn(Cc3ccc(C4CCNCC4)cc3OC)c12 | > 20 | > 20 | 14.2 | > 20 | 4.97 | > 25 | 54 | 89 | 0.074 | 4 | > 20 | 9.42 | > 20 | – | – | –
2 | CCCCNc1nc(N)nc2c(CC)nn(Cc3ncc(C4CCNCC4)cc3OC)c12 | > 20 | > 20 | > 20 | > 20 | > 20 | > 25 | 47 | 74 | > 5 | > 50 | > 20 | > 20 | > 20 | 0.572 | – | –
3 | CCCCNc1nc(N)nc2c(C3CC3)nn(Cc3ncc(C4CCNCC4)cc3OC)c12 | 17.6 | > 20 | > 20 | 10.1 | > 20 | 20 | 30 | 97 | > 5 | – | > 20 | > 20 | 10.1 | 0.461 | Not Active | –
4 | CCCCNc1nc(N)nc2cnn(Cc3ccc(CNC4CCC4)cc3OC)c12 | > 20 | 14.2 | 1.12 | – | > 20 | 15 | 3 | 45 | – | 24 | > 20 | > 20 | 8.14 | – | – | –
5 | CCCCNc1nc(N)nc2c(C)nn(Cc3ncc(C4CCNCC4)cc3OC)c12 | > 20 | 1.21 | > 20 | 1 | > 20 | > 25 | 71 | 95 | > 5 | > 50 | > 20 | > 20 | 1 | – | – | –
6 | CCC[C@@H](CCO)Nc1nc(N)nc2cnn(Cc3ncc(C4=CC5(CCN(C(C)C)CC5)C4)cc3OC)c12 | > 20 | > 20 | > 20 | > 20 | > 20 | 16 | 83 | 72 | 0.159 | 62 | > 20 | > 20 | > 20 | – | – | –
7 | CCC[C@@H](CCO)Nc1nc(N)nc2cnn(Cc3ncc(C4=CC5(CCNCC5)C4)cc3OC)c12 | > 20 | > 20 | > 20 | > 20 | > 20 | > 25 | 93 | 80 | 1.91 | 10 | > 20 | > 20 | > 20 | – | – | –
8 | CCC[C@@H](CCO)Nc1nc(N)nc2cnn(Cc3ncc(C4CC5(C4)CN(C(C)C)C5)cc3OC)c12 | – | – | – | – | – | > 25 | – | – | 0.626 | – | – | – | – | – | Not Active | inhibition (INH) (Cytochrome P450 2C9): Not Active; inhibition (INH) (Cytochrome P450 2D6): Not Active; inhibition (INH) (Cytochrome P450 2C8): Not Active; inhibition (INH) (Cytochrome P450 1A2): Not Active; inhibition (INH) (Cytochrome P450 2C19): Not Active; inhibition (INH) (Cytochrome P450 3A4 [8]): Not Active
9 | CCC[C@@H](CCO)Nc1nc(N)nc2cnn(Cc3ncc(C4=CC5(CCN(C6CCOCC6)CC5)C4)cc3OC)c12 | > 20 | > 20 | > 20 | > 20 | > 20 | 7.2 | 86 | 75 | 0.127 | > 100 | > 20 | > 20 | > 20 | – | – | –
10 | CCCCNc1nc(N)nc2cnn(Cc3ccc(C4CCNCC4)cc3OC(F)F)c12 | – | – | – | – | – | > 25 | 17 | 100 | 0.465 | – | – | – | – | 0.087 | Not Active | inhibition (INH) (Cytochrome P450 2C9): Not Active; inhibition (INH) (Cytochrome P450 2D6): Not Active; inhibition (INH) (Cytochrome P450 2C8): Not Active; inhibition (INH) (Cytochrome P450 1A2): Not Active; inhibition (INH) (Cytochrome P450 2C19): Not Active; inhibition (INH) (Cytochrome P450 3A4 [8]): Not Active

Source: ChEMBL document CHEMBL5357082, “Identification and Optimization of Small Molecule Pyrazolopyrimidine TLR7 Agonists for Applications in Immuno-oncology” (ACS Med Chem Lett, 2024)
